Measured values reported in the supplement of paper PMC11061612.

Columns and labels:
Experiment in all cases: combination Emax (second highest fraction inhibited in the dose matrix, 72 h); higher = more inhibition; extreme values may be limits of the assay
[1] = tested on: SK-MG-1 (Low Grade Glioma)
Method in brief: (§1)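 Cell lines in DMEM/F12 or RPMI with 10% FBS were plated in 1536-well plates, held 24 hours at 37°C, 5% CO2, then given two-drug dose matrices for 72 hours (DMSO typically 0.2%). Viability was read by CellTiter-Glo 2.0 luminescence and scaled as inhibition from 0 (vehicle wells) to 1 (blank wells). Combination Emax is the second-highest inhibition in the matrix; Bliss excess is observed combination effect minus expected EA + EB − EA·EB, EA and EB being single-agent effects.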

[2] = tested on: TT (Thyroid Gland Carcinoma)
Method in brief: as §1

[3] = tested on: SISO (Cervical Carcinoma)
Method in brief: as §1

[4] = tested on: COLO-320-HSR (Colorectal Carcinoma)
Method in brief: as §1

[5] = tested on: NCI-H1693 (Lung Adenocarcinoma)
Method in brief: as §1

[6] = tested on: ARH-77 (Non-Cancerous)
Method in brief: as §1

[7] = tested on: NCI-H2591 (Mesothelioma)
Method in brief: as §1

[8] = tested on: VCaP (Prostate Carcinoma)
Method in brief: as §1

[9] = tested on: FU97 (Gastric Carcinoma)
Method in brief: as §1

[10] = tested on: NCI-H1650 (Lung Adenocarcinoma)
Method in brief: as §1

[11] = tested on: HCC1954 (Breast Carcinoma)
Method in brief: as §1

[12] = tested on: A3-KAW (B-Cell Non-Hodgkin's Lymphoma)
Method in brief: as §1

[13] = tested on: NY (Osteosarcoma)
Method in brief: as §1

[14] = tested on: ECC10 (Gastric Carcinoma)
Method in brief: as §1

[15] = tested on: NCI-H64 (Small Cell Lung Carcinoma)
Method in brief: as §1

[16] = tested on: NCI-H2066 (Squamous Cell Lung Carcinoma)
Method in brief: as §1

[17] = tested on: SK-MES-1 (Squamous Cell Lung Carcinoma)
Method in brief: as §1

[18] = tested on: OS-RC-2 (Kidney Carcinoma)
Method in brief: as §1

[19] = tested on: ONS-76 (Other Solid Carcinomas)
Method in brief: as §1

[20] = tested on: NCI-H1666 (Lung Adenocarcinoma)
Method in brief: as §1

CN(C)CCCOc1ccc(-c2ccc3ncc4c(c3c2)n(C2CCOCC2)c(=O)n4C)cn1 [AZD0156] + C=CCn1c(=O)c2cnc(Nc3ccc(N4CCN(C)CC4)cc3)nc2n1-c1cccc(C(C)(C)O)n1 [AZD1775] (first compound max 1 µM, partner max 1 µM)
combination Emax [1]: 0.525
combination Emax [2]: 0.271
combination Emax [3]: 0.566
combination Emax [4]: 0.719
combination Emax [5]: 0.179
combination Emax [6]: 0.944
combination Emax [7]: 0.191
combination Emax [8]: 0.553
combination Emax [9]: 0.367
combination Emax [10]: 0.385
combination Emax [11]: 0.181
combination Emax [12]: 0.95
combination Emax [13]: 0.555
combination Emax [14]: 0.783
combination Emax [15]: 0.832
combination Emax [16]: 0.208
combination Emax [17]: 0.555
combination Emax [18]: 0.326
combination Emax [19]: 0.675
combination Emax [20]: 0.314

CN(C)CCCOc1ccc(-c2ccc3ncc4c(c3c2)n(C2CCOCC2)c(=O)n4C)cn1 [AZD0156] + CCN(CCO)CCCOc1ccc2c(Nc3cc(CC(=O)Nc4cccc(F)c4)[nH]n3)ncnc2c1 [AZD2811] (first compound max 1 µM, 7x7, partner max 1 µM)
combination Emax [1]: 0.388
combination Emax [2]: 0.359
combination Emax [3]: 0.172
combination Emax [4]: 0
combination Emax [5]: 0.142
combination Emax [6]: 0.492
combination Emax [7]: 0.112
combination Emax [8]: 0.118
combination Emax [9]: 0.188
combination Emax [10]: 0.101
combination Emax [11]: 0.0882
combination Emax [12]: 0.572
combination Emax [13]: 0.0423
combination Emax [14]: 0.856
combination Emax [15]: 0.461
combination Emax [16]: 0.192
combination Emax [17]: 0.204
combination Emax [18]: 0.11
combination Emax [19]: 0.293
combination Emax [20]: 0.211

CN(C)CCCOc1ccc(-c2ccc3ncc4c(c3c2)n(C2CCOCC2)c(=O)n4C)cn1 [AZD0156] + C[C@@H]1COCCN1C2=NC(=NC(=C2)C3(CC3)[S@](=N)(=O)C)C4=C5C=CNC5=NC=C4 [AZD6738] (first compound max 1 µM, 7x7, partner max 10 µM)
combination Emax [1]: 0.565
combination Emax [2]: 0.429
combination Emax [3]: 0.588
combination Emax [4]: 0.652
combination Emax [5]: 0.192
combination Emax [6]: 0.975
combination Emax [7]: 0.293
combination Emax [8]: 0.359
combination Emax [9]: 0.414
combination Emax [10]: 0.376
combination Emax [11]: 0.435
combination Emax [12]: 0.995
combination Emax [13]: 0.555
combination Emax [14]: 0.332
combination Emax [15]: 0.732
combination Emax [16]: 0.35
combination Emax [17]: 0.73
combination Emax [18]: 0.425
combination Emax [19]: 0.942
combination Emax [20]: 0.331

CN(C)CCCOc1ccc(-c2ccc3ncc4c(c3c2)n(C2CCOCC2)c(=O)n4C)cn1 [AZD0156] + O=C(c1cc(Cc2n[nH]c(=O)c3ccccc23)ccc1F)N1CCN(C(=O)C2CC2)CC1 [Olaparib] (first compound max 3 µM, partner max 3 µM)
combination Emax [1]: 0.319
combination Emax [2]: 0.237
combination Emax [3]: 0.303
combination Emax [4]: 0.301
combination Emax [5]: 0.248
combination Emax [6]: 0.63
combination Emax [7]: 0.135
combination Emax [8]: 0.296
combination Emax [9]: 0.422
combination Emax [10]: 0.226
combination Emax [11]: 0.218
combination Emax [12]: 0.909
combination Emax [13]: 0.338
combination Emax [14]: 0.299
combination Emax [15]: 0.145
combination Emax [16]: 0.215
combination Emax [17]: 0.407
combination Emax [18]: 0.269
combination Emax [19]: 0.235
combination Emax [20]: 0.269

C=CCn1c(=O)c2cnc(Nc3ccc(N4CCN(C)CC4)cc3)nc2n1-c1cccc(C(C)(C)O)n1 [AZD1775] + C1CN(CCC1(C(=O)N[C@@H](CCO)C2=CC=C(C=C2)Cl)N)C3=NC=NC4=C3C=CN4 [Capivasertib] (first compound max 3 µM, partner max 3 µM)
combination Emax [1]: 0.591
combination Emax [2]: 0.264
combination Emax [3]: 0.731
combination Emax [4]: 0.854
combination Emax [5]: 0.449
combination Emax [6]: 0.983
combination Emax [7]: 0.178
combination Emax [8]: 0.647
combination Emax [9]: 0.471
combination Emax [10]: 0.61
combination Emax [11]: 0.914
combination Emax [12]: 0.987
combination Emax [13]: 0.737
combination Emax [14]: 0.746
combination Emax [15]: 0.92
combination Emax [16]: 0.685
combination Emax [17]: 0.781
combination Emax [18]: 0.406
combination Emax [19]: 0.76
combination Emax [20]: 0.55

C=CCn1c(=O)c2cnc(Nc3ccc(N4CCN(C)CC4)cc3)nc2n1-c1cccc(C(C)(C)O)n1 [AZD1775] + C[C@@H]1COCCN1C2=NC(=NC(=C2)C3(CC3)[S@](=N)(=O)C)C4=C5C=CNC5=NC=C4 [AZD6738] (first compound max 1 µM, partner max 10 µM)
combination Emax [1]: 0.702
combination Emax [2]: 0.441
combination Emax [3]: 0.822
combination Emax [4]: 0.821
combination Emax [5]: 0.331
combination Emax [6]: 1
combination Emax [7]: 0.389
combination Emax [8]: 0.602
combination Emax [9]: 0.373
combination Emax [10]: 0.53
combination Emax [11]: 0.77
combination Emax [12]: 0.992
combination Emax [13]: 0.665
combination Emax [14]: 0.843
combination Emax [15]: 0.936
combination Emax [16]: 0.605
combination Emax [17]: 0.695
combination Emax [18]: 0.453
combination Emax [19]: 0.942
combination Emax [20]: 0.49

CN(CCO)CC[C@H](CSc1ccccc1)Nc1ccc(S(=O)(=O)NC(=O)c2ccc(N3CCC([C@@H](O)c4ccccc4-c4ccc(Cl)cc4)CC3)cc2)cc1S(=O)(=O)C(F)(F)F [AZD4320] + C1CN(CCC1(C(=O)N[C@@H](CCO)C2=CC=C(C=C2)Cl)N)C3=NC=NC4=C3C=CN4 [Capivasertib] (first compound max 1 µM, 7x7, partner max 3 µM)
combination Emax [1]: 0.413
combination Emax [2]: 0.408
combination Emax [3]: 0.0618
combination Emax [4]: 0.0137
combination Emax [6]: 0.841
combination Emax [7]: 0.101
combination Emax [8]: 0.404
combination Emax [9]: 0.418
combination Emax [10]: 0.143
combination Emax [11]: 0.902
combination Emax [12]: 0.367
combination Emax [13]: 0.0978
combination Emax [14]: 1
combination Emax [15]: 0.95
combination Emax [16]: 0.923
combination Emax [17]: 0.104
combination Emax [18]: 0.337
combination Emax [19]: 0.221
combination Emax [20]: 0.201

COc1nnc2ccc(N3CCC(c4ccc(OCCN5CCN(C)C(=O)[C@H]5C)cc4)CC3)nn12 [AZD5153] + CN(CC[C@H](CSC1=CC=CC=C1)NC2=C(C=C(C=C2)S(=O)(=O)NC(=O)C3=CC=C(C=C3)N4CCC(CC4)[C@H](C5=CC=CC=C5C6=CC=C(C=C6)Cl)O)S(=O)(=O)C(F)(F)F)CCO [AZD4320] (first compound max 1 µM, 7x7, partner max 1 µM)
combination Emax [1]: 0.566
combination Emax [3]: 0.419
combination Emax [5]: 0.628
combination Emax [6]: 0.965
combination Emax [7]: 0.395
combination Emax [10]: 0.419
combination Emax [11]: 0.322
combination Emax [12]: 1
combination Emax [17]: 0.631
combination Emax [18]: 0.292

Cc1c2c(nn1C)CSCc1cc(n(C)n1)CSc1cc(c3ccccc3c1)OCCCc1c(C(=O)O)n(C)c3c-2c(Cl)ccc13 [AZD5991] + Cn1cnc2c(F)c(Nc3ccc(Br)cc3Cl)c(C(=O)NOCCO)cc21 [Selumetinib] (first compound max 1 µM, 7x7, partner max 3 µM)
combination Emax [1]: 0.339
combination Emax [2]: 0.339
combination Emax [3]: 0.173
combination Emax [4]: 0.801
combination Emax [5]: 0.319
combination Emax [7]: 0.27
combination Emax [8]: 0.911
combination Emax [9]: 0.411
combination Emax [10]: 0.16
combination Emax [11]: 0.982
combination Emax [12]: 1
combination Emax [13]: 0.416
combination Emax [14]: 0.669
combination Emax [15]: 0.295
combination Emax [16]: 0.258
combination Emax [17]: 0.435
combination Emax [18]: 0.238
combination Emax [19]: 0.631
combination Emax [20]: 0.736

CC(=O)c1c(C)c2cnc(Nc3ccc(N4CCNCC4)cn3)nc2n(C2CCCC2)c1=O [Palbociclib] + CN(CC[C@H](CSC1=CC=CC=C1)NC2=C(C=C(C=C2)S(=O)(=O)NC(=O)C3=CC=C(C=C3)N4CCC(CC4)[C@H](C5=CC=CC=C5C6=CC=C(C=C6)Cl)O)S(=O)(=O)C(F)(F)F)CCO [AZD4320] (first compound max 10 µM, 7x7, partner max 1 µM)
combination Emax [1]: 0.563
combination Emax [3]: 0.126
combination Emax [5]: 0.803
combination Emax [6]: 0.899
combination Emax [7]: 0.249
combination Emax [10]: 0.184
combination Emax [11]: 0.32
combination Emax [12]: 0.867
combination Emax [17]: 0.289
combination Emax [18]: 0.365

CCc1c2c(nc3ccc(O)cc13)-c1cc3c(c(=O)n1C2)COC(=O)[C@]3(O)CC [SN-38] + O=C(c1cc(Cc2n[nH]c(=O)c3ccccc23)ccc1F)N1CCN(C(=O)C2CC2)CC1 [Olaparib] (first compound max 0.3 µM, 7x7, partner max 10 µM)
combination Emax [1]: 0.821
combination Emax [2]: 0.892
combination Emax [3]: 0.932
combination Emax [4]: 0.261
combination Emax [6]: 0.997
combination Emax [7]: 0.575
combination Emax [8]: 0.459
combination Emax [9]: 0.277
combination Emax [10]: 0.575
combination Emax [13]: 0.91
combination Emax [14]: 1
combination Emax [15]: 0.396
combination Emax [16]: 0.0964
combination Emax [19]: 0.829
combination Emax [20]: 0.532

C[C@@H](c1ccc2nccn2c1)n1nnc2ncc(-c3cnn(C)c3)nc21 [Savolitinib] + CN(CC[C@H](CSC1=CC=CC=C1)NC2=C(C=C(C=C2)S(=O)(=O)NC(=O)C3=CC=C(C=C3)N4CCC(CC4)[C@H](C5=CC=CC=C5C6=CC=C(C=C6)Cl)O)S(=O)(=O)C(F)(F)F)CCO [AZD4320] (first compound max 1 µM, 7x7, partner max 1 µM)
combination Emax [1]: 0.152
combination Emax [3]: 0.0887
combination Emax [5]: 0.182
combination Emax [6]: 0.82
combination Emax [7]: 0.15
combination Emax [10]: 0.182
combination Emax [11]: 0.412
combination Emax [12]: 0.128
combination Emax [17]: 0.18
combination Emax [18]: 0.324

CC(=O)Nc1cccc(-n2c(=O)n(C3CC3)c(=O)c3c(Nc4ccc(I)cc4F)n(C)c(=O)c(C)c32)c1 [Trametinib] + Cc1nc(-c2cn3c(n2)-c2ccc(-c4cnn(C(C)(C)C(N)=O)c4)cc2OCC3)n(C(C)C)n1 [Taselisib] (first compound max 1 µM, 7x7, partner max 10 µM)
combination Emax [1]: 0.85
combination Emax [2]: 0.666
combination Emax [3]: 0.447
combination Emax [4]: 0.338
combination Emax [5]: 0.469
combination Emax [6]: 0.776
combination Emax [7]: 0.543
combination Emax [8]: 0.47
combination Emax [10]: 0.695
combination Emax [11]: 0.949
combination Emax [12]: 0.726
combination Emax [13]: 0.747
combination Emax [14]: 0.989
combination Emax [15]: 0.477
combination Emax [16]: 0.728
combination Emax [17]: 1
combination Emax [18]: 0.627
combination Emax [19]: 0.975
combination Emax [20]: 0.988
